Laboratory results published in US20250345446A1 (Draupnir Bio ApS, priority 2022, published 2025).

Molecular target: T1, soluble ectodomain of sortilin-6his (Homo sapiens, UniProt Q99523, V650M)
T1 construct: the soluble ectodomain of sortilin-6his is measured by microscale thermophoresis (MST)
Assay: MST binding to soluble ectodomain of sortilin-6his
Conditions: Table 4; small molecule bifunctional compounds; MST; read-out: KD score, binding to sortilin (Kd)
Experimental: At this point the plate was sealed with adhesive strip and placed on an Eppendorf thermomixer to shake at 600 rpm for 3 min before spinning on a Fisherbrand plate-spinner for 15 seconds and further incubation 1 hrs at 19° C. MST was measured on a Monolith NT. Automated (Nanotemper) in standard-treated capillaries at 5% LED-power and high MST-power. Dose-response was extracted from the raw thermographs at 20 sec hot-time and the dissociation constant was estimated by sigmoidal curve fitting in MO. Affinity analysis program (Nanotemper). All experiments were run in duplicates.

T1 sequence (Q99523 with tags, fused parts or gaps V650M): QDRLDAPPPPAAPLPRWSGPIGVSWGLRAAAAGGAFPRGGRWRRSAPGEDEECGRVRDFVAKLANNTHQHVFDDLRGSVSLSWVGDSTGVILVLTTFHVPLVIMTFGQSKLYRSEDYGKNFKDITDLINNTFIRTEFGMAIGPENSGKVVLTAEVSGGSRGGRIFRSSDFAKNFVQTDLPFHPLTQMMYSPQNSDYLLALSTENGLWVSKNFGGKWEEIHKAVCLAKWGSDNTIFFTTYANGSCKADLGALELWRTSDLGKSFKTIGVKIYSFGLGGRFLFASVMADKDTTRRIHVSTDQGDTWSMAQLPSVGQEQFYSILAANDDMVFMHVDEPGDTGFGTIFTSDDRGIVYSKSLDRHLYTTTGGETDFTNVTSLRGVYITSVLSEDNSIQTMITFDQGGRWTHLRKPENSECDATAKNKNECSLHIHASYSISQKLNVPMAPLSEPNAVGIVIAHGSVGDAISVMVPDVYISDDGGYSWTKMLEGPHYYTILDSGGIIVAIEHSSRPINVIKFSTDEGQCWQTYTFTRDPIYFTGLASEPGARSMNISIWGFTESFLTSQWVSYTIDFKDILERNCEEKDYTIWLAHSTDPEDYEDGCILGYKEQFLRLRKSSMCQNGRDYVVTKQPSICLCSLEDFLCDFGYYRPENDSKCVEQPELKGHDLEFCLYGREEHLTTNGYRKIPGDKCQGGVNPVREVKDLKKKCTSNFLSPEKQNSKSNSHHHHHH

SMILES	Kd
CC(C)(C)CC[C@H](NC(=O)c1ccc(Oc2cccc(C(=O)NCCOCCOCCNc3ccc([N+](=O)[O-])cc3[N+](=O)[O-])c2)nc1)C(=O)O [BF001, (2S)-2-[[6-[3-[2-[2-[2-(2,4-dinitroanilino)ethoxy]ethoxy]ethylcarbamoyl]phenoxy]pyridine-3-carbonyl]amino]-5,5-dimethyl-hexanoic acid]	1 to 10 nM
CC(C)(C)CC[C@H](NC(=O)c1ccc(Oc2cccc(C(=O)NCCOCCOCCOCCNc3ccc([N+](=O)[O-])cc3[N+](=O)[O-])c2)nc1)C(=O)O [BF002, (2S)-2-[[6-[3-[2-[2-[2-[2-(2,4-dinitroanilino)ethoxy]ethoxy]ethoxy]ethyl-carbamoyl]phenoxy]pyridine-3-carbonyl]amino]-5,5-dimethyl-hexanoic acid]	1 to 10 nM
CC(C)(C)CC[C@H](NC(=O)c1ccc(Oc2cccc(C(=O)NCCOCCOCCOCCOCCNc3ccc([N+](=O)[O-])cc3[N+](=O)[O-])c2)nc1)C(=O)O [BF003, (2S)-2-[[6-[3-[2-[2-[2-[2-[2-(2,4-dinitroanilino)ethoxy]ethoxy]ethoxy]ethoxy]ethylcarbamoyl]phenoxy]pyridine-3-carbonyl]amino]-5,5-dimethyl-hexanoic acid]	1 to 10 nM
CC(C)(C)CC[C@H](NC(=O)c1ccc(Oc2cccc(OCCOCCOCCOCCNc3ccc([N+](=O)[O-])cc3[N+](=O)[O-])c2)nc1)C(=O)O [BF007, (2S)-2-[[6-[3-[2-[2-[2-[2-(2,4-dinitroanilino)ethoxy]ethoxy]ethoxy]ethoxy]phenoxy]pyridine-3-carbonyl]amino]-5,5-dimethyl-hexanoic acid]	1 to 10 nM
CC(C)(C)CC[C@H](NC(=O)c1ccc(Oc2cccc3c(C(=O)NCCCNC(=O)CCOCCOCCNc4ccc([N+](=O)[O-])cc4[N+](=O)[O-])cccc23)nc1)C(=O)O [BF009]	1 to 10 nM
CC(C)(C)CC[C@H](NC(=O)c1ccc(Oc2cccc(OCCOCCOCCOCCOCCOCCOCCOCCNc3ccc([N+](=O)[O-])cc3[N+](=O)[O-])c2)nc1)C(=O)O [BF012, (2S)-2-[[6-[3-[2-[2-[2-[2-[2-[2-[2-[2-(2,4-dinitroanilino)ethoxy]ethoxy]ethoxy]ethoxy]ethoxy]ethoxy]ethoxy]ethoxy]phenoxy]pyridine-3-carbonyl]amino]-5,5-dimethyl-hexanoic acid]	1 to 10 nM
C[C@@H]1CN(c2ncc(-c3ccc4c(n3)N(Cc3cccnc3C#N)C(C)(C)C4=O)cn2)CCN1C(=O)COCCOCCOCCOCCNC(=O)c1cccc(Oc2ccc(C(=O)N[C@@H](CCC(C)(C)C)C(=O)O)cn2)c1 [BF031, (2S)-2-[[6-[3-[2-[2-[2-[2-[2-[(2R)-4-[5-[1-[(2-cyano-3-pyridyl)methyl]-2,2-dimethyl-3-oxo-pyrrolo[2,3-b]pyridin-6-yl]pyrimidin-2-yl]-2-methyl-piperazin-1-yl]-2-oxo-ethoxy]ethoxy]ethoxy]ethoxy]ethylcarbamoyl]phenoxy]pyridine-3-carbonyl]amino]-5,5-dimethyl-hexanoic acid]	10 to 250 nM
C[C@@H]1CN(c2ncc(-c3ccc4c(n3)N(Cc3cccnc3C#N)C(C)(C)C4=O)cn2)CCN1C(=O)COCCCCCCCCNc1cccc(Oc2ccc(C(=O)N[C@@H](CCC(C)(C)C)C(=O)O)cn2)c1 [BF038]	> 250 nM
CC(C)(C)CC[C@H](NC(=O)c1ccc(Oc2cccc(C(=O)NCCOCCOCCOCCOCCOCCOCc3ccc(-c4cccc5ccncc45)c(OCCc4ccc(-c5cccc6ccncc56)cc4)c3)c2)nc1)C(=O)O [BF044, (2S)-2-[[6-[3-[2-[2-[2-[2-[2-[2-[[4-(8-isoquinolyl)-3-[2-[4-(8-isoquinolyl)phenyl]ethoxy]phenyl]methoxy]ethoxy]ethoxy]ethoxy]ethoxy]ethoxy]ethylcarbamoyl]phenoxy]pyridine-3-carbonyl]amino]-5,5-dimethyl-hexanoic acid]	10 to 250 nM
C[C@@H]1CN(c2ncc(-c3ccc4c(n3)N(Cc3cccnc3C#N)C(C)(C)C4=O)cn2)CCN1C(=O)COCCNc1cccc(Oc2ccc(C(=O)N[C@@H](CCC(C)(C)C)C(=O)O)cn2)c1 [BF047, (S)-2-(6-(3-((2-(2-((R)-4-(5-(1-((2-cyanopyridin-3-yl)methyl)-2,2-dimethyl-3-oxo-2,3-dihydro-1H-pyrrolo[2,3-b]pyridin-6-yl)pyrimidin-2-yl)-2-methylpiperazin-1-yl)-2-oxoethoxy)ethyl)amino)phenoxy)nicotinamido)-5,5-dimethylhexanoic acid]	1 to 10 nM
C[C@@H]1CN(c2ncc(-c3ccc4c(n3)N(Cc3cccnc3C#N)C(C)(C)C4=O)cn2)CCN1C(=O)COCCCCNC(=O)COc1cccc(Oc2ccc(C(=O)N[C@@H](CCC(C)(C)C)C(=O)O)cn2)c1 [BF048]	1 to 10 nM
CC(C)(C)CC[C@H](NC(=O)c1ccc(Oc2cccc(C(=O)NCCOCCOCCNc3ncc(-c4ccc5c(n4)N(Cc4cccnc4C#N)C(C)(C)C5=O)cn3)c2)nc1)C(=O)O [BF049, (2S)-2-[[6-[3-[2-[2-[2-[[5-[1-[(2-cyano-3-pyridyl)methyl]-2,2-dimethyl-3-oxo-pyrrolo[2,3-b]pyridin-6-yl]pyrimidin-2-yl]amino]ethoxy]ethoxy]ethylcarbamoyl]phenoxy]pyridine-3-carbonyl]amino]-5,5-dimethyl-hexanoic acid]	1 to 10 nM
C[C@@H]1CN(c2ncc(-c3ccc4c(n3)N(Cc3cccnc3C#N)C(C)(C)C4=O)cn2)CCN1C(=O)COCCOCCNC(=O)c1cccc(Oc2ccc(C(=O)N[C@@H](CCC(C)(C)C)C(=O)O)cn2)c1 [BF051, (2S)-2-[[6-[3-[2-[2-[2-[(2R)-4-[5-[1-[(2-cyano-3-pyridyl)methyl]-2,2-dimethyl-3-oxo-pyrrolo[2,3-b]pyridin-6-yl]pyrimidin-2-yl]-2-methyl-piperazin-1-yl]-2-oxo-ethoxy]ethoxy]ethylcarbamoyl]phenoxy]pyridine-3-carbonyl]amino]-5,5-dimethyl-hexanoic acid]	1 to 10 nM
CC(C)(C)CC[C@H](NC(=O)c1ccc(Oc2cccc(C(=O)NCCOCCOCCOCCOCCOc3ncc(-c4ccc5c(n4)N(Cc4cccnc4C#N)C(C)(C)C5=O)cn3)c2)nc1)C(=O)O [BF052]	1 to 10 nM
CC(C)(C)CC[C@H](NC(=O)c1ccc(Oc2cccc(C(=O)NCCOCCOc3ncc(-c4ccc5c(n4)N(Cc4cccnc4C#N)C(C)(C)C5=O)cn3)c2)nc1)C(=O)O [BF053]	1 to 10 nM
CC(C)(C)CC[C@H](NC(=O)c1ccc(Oc2cccc(C(=O)NCCOCCOCCOCCOc3ncc(-c4ccc5c(n4)N(Cc4cccnc4C#N)C(C)(C)C5=O)cn3)c2)nc1)C(=O)O [BF054]	1 to 10 nM

Second part, the compound after the results:

Kd	SMILES
1 to 10 nM	C[C@@H]1CN(c2ncc(-c3ccc4c(n3)N(Cc3cccnc3C#N)C(C)(C)C4=O)cn2)CCN1C(=O)CNC(=O)COCCOCCCCCCNC(=O)c1cccc(Oc2ccc(C(=O)N[C@@H](CCC(C)(C)C)C(=O)O)cn2)c1
< 1 nM	CC(C)(C)CC[C@H](NC(=O)c1ccc(Oc2cccc(C(=O)NCCOCCOCCOCCNc3ncc(-c4ccc5c(n4)N(Cc4cccnc4C#N)C(C)(C)C5=O)cn3)c2)nc1)C(=O)O [BF030, (2S)-2-[[6-[3-[2-[2-[2-[2-[[5-[1-[(2-cyano-3-pyridyl)methyl]-2,2-dimethyl-3-oxo-pyrrolo[2,3-b]pyridin-6-yl]pyrimidin-2-yl]amino]ethoxy]ethoxy]ethoxy]ethylcarbamoyl]phenoxy]pyridine-3-carbonyl]amino]-5,5-dimethyl-hexanoic acid]
< 1 nM	CC(C)(C)CC[C@H](NC(=O)c1ccc(Oc2cccc(C(=O)NCCOCCOCCOCc3ccc(-c4cccc5ccncc45)c(OCCc4ccc(-c5cccc6ccncc56)cc4)c3)c2)nc1)C(=O)O [BF033, (2S)-2-[[6-[3-[2-[2-[2-[[4-(8-isoquinolyl)-3-[2-[4-(8-isoquinolyl)phenyl]ethoxy]phenyl]methoxy]ethoxy]ethoxy]ethylcarbamoyl]phenoxy]pyridine-3-carbonyl]amino]-5,5-dimethyl-hexanoic acid]
1 to 10 nM	CC(C)(C)CC[C@H](NC(=O)c1ccc(Oc2cccc(C(=O)NCCOCCOCCOCCOCc3ccc(-c4cccc5ccncc45)c(OCCc4ccc(-c5cccc6ccncc56)cc4)c3)c2)nc1)C(=O)O [BF035, (2S)-2-[[6-[3-[2-[2-[2-[2-[[4-(8-isoquinolyl)-3-[2-[4-(8-isoquinolyl)phenyl]ethoxy]phenyl]methoxy]ethoxy]ethoxy]ethoxy]ethylcarbamoyl]phenoxy]pyridine-3-carbonyl]amino]-5,5-dimethyl-hexanoic acid]
1 to 10 nM	C[C@@H]1CN(c2ncc(-c3ccc4c(n3)N(Cc3cccnc3C#N)C(C)(C)C4=O)cn2)CCN1C(=O)COCCCCCCNC(=O)COc1cccc(Oc2ccc(C(=O)N[C@@H](CCC(C)(C)C)C(=O)O)cn2)c1 [BF036]
< 1 nM	CC(C)(C)CC[C@H](NC(=O)c1ccc(Oc2cccc(C(=O)NCCOCCOCCOCCOCCOCc3ccc(-c4cccc5ccncc45)c(OCCc4ccc(-c5cccc6ccncc56)cc4)c3)c2)nc1)C(=O)O [BF037, (2S)-2-[[6-[3-[2-[2-[2-[2-[2-[[4-(8-isoquinolyl)-3-[2-[4-(8-isoquinolyl)phenyl]ethoxy]phenyl]methoxy]ethoxy]ethoxy]ethoxy]ethoxy]ethylcarbamoyl]phenoxy]pyridine-3-carbonyl]amino]-5,5-dimethyl-hexanoic acid]
1 to 10 nM	C[C@@H]1CN(c2ncc(-c3ccc4c(n3)N(Cc3cccnc3C#N)C(C)(C)C4=O)cn2)CCN1C(=O)COCCCCCCNc1cccc(Oc2ccc(C(=O)N[C@@H](CCC(C)(C)C)C(=O)O)cn2)c1 [BF039]
< 1 nM	C[C@@H]1CN(c2ncc(-c3ccc4c(n3)N(Cc3cccnc3C#N)C(C)(C)C4=O)cn2)CCN1C(=O)COCCCCCCCCNC(=O)c1cccc(Oc2ccc(C(=O)N[C@@H](CCC(C)(C)C)C(=O)O)cn2)c1 [BF041]
1 to 10 nM	C[C@@H]1CN(c2ncc(-c3ccc4c(n3)N(Cc3cccnc3C#N)C(C)(C)C4=O)cn2)CCN1C(=O)COCCCCNC(=O)c1cccc(Oc2ccc(C(=O)N[C@@H](CCC(C)(C)C)C(=O)O)cn2)c1 [BF045]
< 1 nM	C[C@@H]1CN(c2ncc(-c3ccc4c(n3)N(Cc3cccnc3C#N)C(C)(C)C4=O)cn2)CCN1C(=O)COCCCCNc1cccc(Oc2ccc(C(=O)N[C@@H](CCC(C)(C)C)C(=O)O)cn2)c1 [BF046]
